# Assay results from PubChem BioAssay AID1117361 (Southern Research Institute, 2015).
# Molecular target: Protein Tat (Human immunodeficiency virus type 1 group M subtype B (isolate HXB2)) (UniProt P04608)
# Experiment: inhibitors of Tat binding to TAR RNA, dose response, counter-screen for Vif-APOBEC3G degradation inhibitor project, biochemical, fluorescence polarization, FAM-labeled TAR RNA (AID 1117361)
# Sequence of Protein Tat (Human immunodeficiency virus type 1 group M subtype B (isolate HXB2)) (P04608 whole entry, looked up): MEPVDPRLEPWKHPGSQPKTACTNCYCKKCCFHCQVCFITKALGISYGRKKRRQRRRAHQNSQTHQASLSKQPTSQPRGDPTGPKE
row,SMILES,IC50
1,O=C(O)C[C@@H]1C(=O)O[C@@H]2C(COC(=O)c3cc(O)c(O)c(O)c3)O[C@@H](OC(=O)c3cc(O)c(O)c(O)c3)[C@@H](OC(=O)c3cc(O)c(O)c4c3[C@H]1[C@H](O)C(=O)O4)[C@H]2OC(=O)c1cc(O)c(O)c(O)c1 (stereo not given in full),0.556 µM
2,O=C1NC(=S)SC1=C1CCCC1,6.59 µM
3,Nc1ccc(N(CCO)CCO)cc1,9.62 µM
4,CCN(CC)C(=O)c1ccc2c(c1)C1C(Cl)C(Sc3ccccc3[N+](=O)[O-])CC1C(C(=O)O)N2 (stereo not given),5.54 µM
5,O=C1CCC/C1=C/Nc1ccc2c(c1)OCO2,19.7 µM
6,CCOC(=O)C1=C(c2ccccc2)N=c2s/c(=C\c3ccco3)c(=O)n2C1c1cccs1 (stereo not given),32.8 µM
7,Cc1cc(C)nc(N/N=C/C2=C(N3CCOCC3)C(=C\c3ccc(Cl)cc3)/CC2)n1,72.4 µM
8,Cc1cc(C(=O)CSc2nnc(-c3ccco3)o2)c(C)n1Cc1ccco1,4.41 µM
9,Cc1ccc(C(=O)C2=C(O)C(=O)N(c3ncccn3)C2c2ccc(F)cc2)o1 (stereo not given),82.7 µM
10,O=C(c1cc(-c2ccco2)on1)N1CCN(c2ccccc2)CC1,18.6 µM
11,O=C(O)C1Nc2c(O)cc(Cl)c([N+](=O)[O-])c2C2C=CCC12 (stereo not given),1.64 µM
12,O=C(CCN1CCN(c2ccccc2)CC1)N/N=C/c1ccc(O)c(O)c1O,4.87 µM
13,CCCCN1C2CCCC1CC(NC(=O)c1ccc(OC)c(OC)c1)C2 (stereo not given),78.3 µM
14,O=C(O)c1cc2cccc(S(=O)(=O)N3CCOCC3)c2cc1O,80.3 µM
15,CCOC(=O)C1CCN(C(=O)COc2ccc(S(=O)(=O)NC(C)C)cc2)CC1,81.8 µM
16,COc1ccc(NC(=O)N2c3ccc(OC)cc3C(C)=CC2(C)C)cc1,3.29 µM
17,CC(C)C(C(=O)O)N1C(=O)/C(=C/C=C/c2ccco2)SC1=S (stereo not given),1.4 µM
18,COc1ccccc1C1C=C(c2ccc(C)cc2)Nc2nnnn21 (stereo not given),84.4 µM
19,NC1=NC(=O)/C(=C\c2ccco2)S1,6.09 µM
20,CC1C/C(=C/c2ccco2)C(=O)/C(=C/c2ccco2)C1 (stereo not given),3.92 µM
21,O=C1/C(=C\c2ccco2)NC(=S)N1c1ccccc1,16.1 µM
22,CCCCn1c(SCC(=O)NCc2ccco2)nc2ccc(N3CCOCC3)cc2c1=O,22.8 µM
23,CC(C)c1ccc(/C=C/C(=O)N2CCc3ccccc3C2)cc1,33.7 µM
24,CCCCN1C(=O)/C(=C/C=C/c2ccco2)C(=O)NC1=S,21.7 µM
25,Nc1cccc2c(O)cc(S(=O)(=O)O)cc12,19.3 µM

row,SMILES,IC50
1,CC(C)N1C(=O)CC(Nc2ccc(N3CCOCC3)cc2)C1=O (stereo not given),16 µM
2,Cc1ccc(N/N=C/c2c(C)c(C#N)c(=O)n(C)c2O)cc1C,11.9 µM
3,CCOc1ccccc1C(O)C1=CC(=O)c2ccccc2C1=O (stereo not given),77.7 µM
4,COC(=O)C1=COC(C)C2CN3CCc4c([nH]c5ccccc45)C3CC12 (stereo not given),7.63 µM
5,COc1cc(-c2cccs2)cc(=O)c2c(C)oc(C)c12,22.7 µM
6,Clc1ccccc1N=Nc1ccccn1,35 µM
7,O=[N+]([O-])c1cc(Br)c(O)c(C=Nc2ccc(N3CCOCC3)cc2)c1,77.5 µM
8,Cc1noc(/C=C/c2ccco2)c1S(=O)(=O)N1CCC(C(=O)NCc2ccco2)CC1,6.93 µM
9,COc1cccc(C2CC(c3ccccc3OC)n3nc(N)nc3N2)c1 (stereo not given),0.686 µM
10,O=C1/C(=C/C=C/c2ccco2)SC(=S)N1c1ccc(O)cc1,19.1 µM
11,NC(=O)c1cc(N)ccc1N1CCCC1,2.17 µM
12,O=C1NC(=O)N(Cc2ccccc2)C(=O)/C1=C\C=C\c1ccco1,30.9 µM
13,O=C(CN1C(=O)NC2(CCCCCCC2)C1=O)NCc1cccs1,36.5 µM
14,O=C(NCCCO)Nc1ccc2nc(-c3ccco3)c(-c3ccco3)nc2c1,2.01 µM
15,C/C(=N\Nc1ccc([N+](=O)[O-])cc1[N+](=O)[O-])c1cc2c(ccc3ccccc32)oc1=O,15.6 µM
16,Oc1ccc(NCc2cccc(OCc3ccccc3)c2)cc1,66.7 µM
17,Cc1c(C(=O)O)cccc1-n1c(C)cc(/C=N/Nc2ccc([N+](=O)[O-])cn2)c1C,64 µM
18,COC(=O)\C(C(C)=O)=C(/C=C/C=C/C=C/N(C)C)N(C)C,56.3 µM
19,CCc1c(C)sc(NC(=O)c2cc(-c3ccco3)on2)c1C#N,52.4 µM
20,Cc1ccc(Cl)cc1N1CCN(C(=O)COc2ccc3c(c2)CCC3)CC1,57.2 µM
21,CC1(C)CCCN(C(=O)c2coc(=O)c(Br)c2)C1,7.77 µM
22,CCOC(=O)C1=C(C)N=C2SC(C(=O)OC)=CC(=O)N2C1c1cc(OC)c(OC)c(OC)c1 (stereo not given),31.4 µM
23,Cc1ccc(-n2nc(C)c(C3C(C#N)=C(N)Oc4c3c(=O)oc3ccccc43)c2Cl)cc1 (stereo not given),25.2 µM
24,O=C(O)c1cccc(-n2cccc2/C=C/[N+](=O)[O-])c1,5.57 µM
25,CCOC(=O)N1CCN(C(=O)c2ccc3c(SCC(=O)O)c4c(nc3c2)CCC4)CC1,7.65 µM
